Earlier results as cited in US20030124640A1, “Predictive assay for the outcome of IVF” (Royal Free Hospital School of Medicine, priority 1996, published 2003).
Where two headings read alike, the source gives them in different places.

How the values were obtained:
ovarian 11β-HSD = conditions: for Inhibition of 11β-HSD activity: cultured human granulosa-lutein cells; for Acute effect on ovarian 11β-HSD activity: in vitro
renal 11β-HSD = target: T1, renal 11β-HSD (Homo sapiens, UniProt P80365)
T1 sequence (P80365 1-405): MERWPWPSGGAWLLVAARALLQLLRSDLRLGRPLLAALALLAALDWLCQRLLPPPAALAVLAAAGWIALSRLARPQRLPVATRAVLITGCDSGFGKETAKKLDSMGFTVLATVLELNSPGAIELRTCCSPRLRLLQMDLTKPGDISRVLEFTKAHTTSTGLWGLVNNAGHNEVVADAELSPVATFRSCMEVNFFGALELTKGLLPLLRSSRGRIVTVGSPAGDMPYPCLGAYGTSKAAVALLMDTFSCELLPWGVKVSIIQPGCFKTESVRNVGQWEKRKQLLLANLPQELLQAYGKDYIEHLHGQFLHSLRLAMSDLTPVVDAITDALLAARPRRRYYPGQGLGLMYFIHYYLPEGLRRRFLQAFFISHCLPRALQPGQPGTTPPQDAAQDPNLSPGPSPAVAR

11β-HSD2 = target: T2, 11β-HSD2 (Homo sapiens, UniProt P80365); conditions: renal isoform 11β-HSD2, NAD+ dependent 11β-dehydrogenase
T2 sequence (P80365 1-405): T1 sequence (P80365 1-405)

[1] = hepatic isoform 11βHSD1, NADP(H) cofactor, read-out: Km for 11β-dehydrogenase activity

| Structure (SMILES) | Inhibition of 11β-HSD activity (ovarian 11β-HSD) | Acute effect on ovarian 11β-HSD activity (ovarian 11β-HSD) | Acute effect on renal 11β-HSD activity (renal 11β-HSD) | Km (11β-HSD2) [µM] | Km (11βHSD1; [1]) [µM] | also measured |
| --- | --- | --- | --- | --- | --- | --- |
| CC(=O)[C@H]1CC[C@H]2[C@@H]3CC=C4C[C@@H](O)CC[C@]4(C)[C@H]3CC[C@]12C [pregnenolone] | can inhibit | inhibit | inhibit | – | – | – |
| C[C@]12C[C@H](O)[C@H]3[C@@H](CCC4=CC(=O)CC[C@@]43C)[C@@H]1CC[C@@H]2C(=O)CO [corticosterone] | – | – | – | 0.026 | ~2 | – |
| C[C@]12CC[C@@H]3c4ccc(O)cc4CC[C@H]3[C@@H]1CC[C@@H]2O [oestradiol] | – | – | – | – | – | Effect on hepatic 11β-HSD activity in vivo (hepatic 11β-HSD): inhibits |
| C[C@]12CCC(=O)C=C1CC[C@@H]1[C@@H]2[C@@H](O)C[C@@]2(C)[C@H]1CC[C@]2(O)C(=O)CO [cortisol] | – | – | – | 0.04 | 17 | – |
| CC(=O)[C@H]1CC[C@H]2[C@@H]3CCC4=CC(=O)CC[C@]4(C)[C@H]3CC[C@]12C [progesterone] | can inhibit | inhibit | inhibit | – | – | – |
| C[C@]12CCC(=O)C=C1CC[C@@H]1[C@@H]2C(=O)C[C@@]2(C)[C@H]1CC[C@]2(O)C(=O)CO [cortisone] | – | – | – | – | – | Km (11βHSD1; hepatic isoform 11βHSD1, cortisone to cortisol, read-out: Km for cortisone (11-ketosteroid reductase activity)): 0.14 to 0.272 µM |
